According to patent US20260078120A1, “SUBSTITUTED PYRIDOPYRIMIDINONES” (MIRATI THERAPEUTICS, INC., priority 2022, published 2026):

Columns and labels:
[1] = test system: T47D (PI3Kα H1047R mutant) cells; assay: CellTiter-Glo 2.0 luminescent cell viability assay, 72 hours, T47D cells; type: cell-based; settings: Homo sapiens, T47D, 72 h, T47D (PI3Kα H1047R mutant) cells, CellTiter-Glo, approximately 72 hours; read-out: T47D (H1047R mutant) Viability IC50
Outline: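 Viability was measured by CellTiter-Glo 2.0 luminescence after approximately 72 h of compound exposure at 37° C. Plating was 1000 cells per well the day before dosing, with ten 1:4 dilutions from a 10 µM top concentration. Values as percent of vehicle were fitted by variable-slope log(inhibitor) regression to give IC50.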

[2] = test system: SKBR3 (PI3Kα wild type) cells; assay: CellTiter-Glo 2.0 luminescent cell viability assay, 72 hours, SKBR3 cells; type: cell-based; settings: Homo sapiens, SK-BR-3, 72 h, SKBR3 (PI3Kα wild type) cells, CellTiter-Glo, approximately 72 hours; read-out: SKBR3 (WT) Viability IC50
Outline: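 Viability measured via CTG luminescence following roughly 72 hours of compound exposure at 37° C. Dosing used a 10 um starting concentration diluted 1:4 over 10 points; percent-of-vehicle data fitted with a variable-slope four-parameter model for IC50.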

SMILES	IC50 [1] [µM]	IC50 [2] [µM]
Cc1cc([C@@H](C)Nc2ccccc2C(=O)O)c2nc(N3CCC(N(C)C)CC3)c(C#N)c(=O)n2c1 [Example 11-313, (R)-2-((1-(3-cyano-2-(4-(dimethylamino)piperidin-1-yl)-7-methyl-4-oxo-4H-pyrido[1,2-a]pyrimidin-9-yl)ethyl)amino)benzoic acid]	> 10	> 10
Cc1cc([C@@H](C)Nc2ccccc2C(=O)O)c2nc(N3CCC(C)CC3)c(C#N)c(=O)n2c1 [Example 11-314, (R)-2-((1-(3-cyano-7-methyl-2-(4-methylpiperidin-1-yl)-4-oxo-4H-pyrido[1,2-a]pyrimidin-9-yl)ethyl)amino)benzoic acid]	0.146	> 10
Cc1cc(C(=O)NC2CCCCC2C(=O)O)c2nc(N3CCCCC3)c(C#N)c(=O)n2c1 (stereo not shown) [Example 11-315, 2-(3-cyano-7-methyl-4-oxo-2-(piperidin-1-yl)-4H-pyrido[1,2-a]pyrimidine-9-carboxamido)cyclohexane-1-carboxylic acid]	> 10	> 10
Cc1cc(C(=O)NC2(CC(=O)O)CCC2)c2nc(N3CCCCC3)c(C#N)c(=O)n2c1 [Example 11-316, 2-(1-(3-cyano-7-methyl-4-oxo-2-(piperidin-1-yl)-4H-pyrido[1,2-a]pyrimidine-9-carboxamido)cyclobutyl)acetic acid]	> 10	> 10
Cc1cc([C@@H](C)NC(=O)C2(C(=O)O)CCC2)c2nc(N3CCCCC3)c(C#N)c(=O)n2c1 [Example 11-317, (R)-1-((1-(3-cyano-7-methyl-4-oxo-2-(piperidin-1-yl)-4H-pyrido[1,2-a]pyrimidin-9-yl)ethyl)carbamoyl)cyclobutane-1-carboxylic acid]	> 10	> 10
Cc1cc([C@@H](C)Nc2ccccc2C(=O)O)c2nc(N3CCOCC3)c(C#N)c(=O)n2c1 [Example 11-318, (R)-2-((1-(3-cyano-7-methyl-2-morpholino-4-oxo-4H-pyrido[1,2-a]pyrimidin-9-yl)ethyl)amino)benzoic acid]	0.274	> 10
Cc1cc([C@@H](C)Nc2ccccc2C(=O)O)c2nc(N3CCCCCC3)c(C#N)c(=O)n2c1 [Example 11-319, (R)-2-((1-(2-(azepan-1-yl)-3-cyano-7-methyl-4-oxo-4H-pyrido[1,2-a]pyrimidin-9-yl)ethyl)amino)benzoic acid]	0.162	> 10
CCN(CC)c1nc2c([C@@H](C)Nc3ccccc3C(=O)O)cc(C)cn2c(=O)c1C#N [Example 11-320, (R)-2-((1-(3-cyano-2-(diethylamino)-7-methyl-4-oxo-4H-pyrido[1,2-a]pyrimidin-9-yl)ethyl)amino)benzoic acid]	0.539	> 10
Cc1cc([C@@H](C)Nc2ccccc2C(=O)O)c2nc(N3CC4(COC4)C3)c(C#N)c(=O)n2c1 [Example 11-321, (R)-2-((1-(3-cyano-7-methyl-4-oxo-2-(2-oxa-6-azaspiro[3.3]heptan-6-yl)-4H-pyrido[1,2-a]pyrimidin-9-yl)ethyl)amino)benzoic acid]	2.8	> 10
Cc1cc([C@@H](C)Nc2ccccc2C(=O)O)c2nc(N3CC4CC(C3)O4)c(C#N)c(=O)n2c1 [Example 11-322, 2-(((1R)-1-(2-(6-oxa-3-azabicyclo[3.1.1]heptan-3-yl)-3-cyano-7-methyl-4-oxo-4H-pyrido[1,2-a]pyrimidin-9-yl)ethyl)amino)benzoic acid]	0.711	> 10
Cc1cc([C@@H](C)Nc2ccccc2C(=O)O)c2nc(N3CC4(CCC4)C3)c(C#N)c(=O)n2c1 [Example 11-323, (R)-2-((1-(3-cyano-7-methyl-4-oxo-2-(azaspiro[3.3]heptan-2-yl)-4H-pyrido[1,2-a]pyrimidin-9-yl)ethyl)amino)benzoic acid]	0.156	> 10
